Ends that are not written are not given here.
Tests used:
[1] = system: T-type Ca2+ channels; settings: patients; cited from earlier work
[2] = Procedure: FIG. 5. […] Animals were sacrificed, and tissues were harvested four hours post-injection.
A His-tagging method was used to assess the brain-penetrance of peptide therapeutics (Westlund et al., 2021, Neurobiol Pain 10:100067). Briefly, a His-tagged TAT-C3P peptide with the sequence […] (SEQ ID NO: 3) was ordered from Genscript. Protein content was assessed with Western blots using standard methods. Briefly, the sample protein was denatured, followed by gel electrophoresis to separate proteins by molecular weight. An anti-His-tag monoclonal antibody (C-terminal A01857, GenScript) that binds to the His-tag conjugated to the TAT-C3P peptide or anti-β-actin antibody (ab8226, Abcam, Cambridge, United Kingdom) was applied to the electrophoresis membrane. After washing off the antibody, specific secondary antibodies were added which recognized and bound to the primary antibodies. The secondary antibody was visualized through immunofluorescence probe attached to the secondary antibody, allowing indirect detection, validation, and semi-quantitative assessment of the specific target protein.

[3] = in vivo
[4] = molecular target: Cav3.3 channels (Homo sapiens, UniProt Q9P0X4); settings: cited from earlier work
Sequence of Cav3.3 channels (Q9P0X4 whole entry): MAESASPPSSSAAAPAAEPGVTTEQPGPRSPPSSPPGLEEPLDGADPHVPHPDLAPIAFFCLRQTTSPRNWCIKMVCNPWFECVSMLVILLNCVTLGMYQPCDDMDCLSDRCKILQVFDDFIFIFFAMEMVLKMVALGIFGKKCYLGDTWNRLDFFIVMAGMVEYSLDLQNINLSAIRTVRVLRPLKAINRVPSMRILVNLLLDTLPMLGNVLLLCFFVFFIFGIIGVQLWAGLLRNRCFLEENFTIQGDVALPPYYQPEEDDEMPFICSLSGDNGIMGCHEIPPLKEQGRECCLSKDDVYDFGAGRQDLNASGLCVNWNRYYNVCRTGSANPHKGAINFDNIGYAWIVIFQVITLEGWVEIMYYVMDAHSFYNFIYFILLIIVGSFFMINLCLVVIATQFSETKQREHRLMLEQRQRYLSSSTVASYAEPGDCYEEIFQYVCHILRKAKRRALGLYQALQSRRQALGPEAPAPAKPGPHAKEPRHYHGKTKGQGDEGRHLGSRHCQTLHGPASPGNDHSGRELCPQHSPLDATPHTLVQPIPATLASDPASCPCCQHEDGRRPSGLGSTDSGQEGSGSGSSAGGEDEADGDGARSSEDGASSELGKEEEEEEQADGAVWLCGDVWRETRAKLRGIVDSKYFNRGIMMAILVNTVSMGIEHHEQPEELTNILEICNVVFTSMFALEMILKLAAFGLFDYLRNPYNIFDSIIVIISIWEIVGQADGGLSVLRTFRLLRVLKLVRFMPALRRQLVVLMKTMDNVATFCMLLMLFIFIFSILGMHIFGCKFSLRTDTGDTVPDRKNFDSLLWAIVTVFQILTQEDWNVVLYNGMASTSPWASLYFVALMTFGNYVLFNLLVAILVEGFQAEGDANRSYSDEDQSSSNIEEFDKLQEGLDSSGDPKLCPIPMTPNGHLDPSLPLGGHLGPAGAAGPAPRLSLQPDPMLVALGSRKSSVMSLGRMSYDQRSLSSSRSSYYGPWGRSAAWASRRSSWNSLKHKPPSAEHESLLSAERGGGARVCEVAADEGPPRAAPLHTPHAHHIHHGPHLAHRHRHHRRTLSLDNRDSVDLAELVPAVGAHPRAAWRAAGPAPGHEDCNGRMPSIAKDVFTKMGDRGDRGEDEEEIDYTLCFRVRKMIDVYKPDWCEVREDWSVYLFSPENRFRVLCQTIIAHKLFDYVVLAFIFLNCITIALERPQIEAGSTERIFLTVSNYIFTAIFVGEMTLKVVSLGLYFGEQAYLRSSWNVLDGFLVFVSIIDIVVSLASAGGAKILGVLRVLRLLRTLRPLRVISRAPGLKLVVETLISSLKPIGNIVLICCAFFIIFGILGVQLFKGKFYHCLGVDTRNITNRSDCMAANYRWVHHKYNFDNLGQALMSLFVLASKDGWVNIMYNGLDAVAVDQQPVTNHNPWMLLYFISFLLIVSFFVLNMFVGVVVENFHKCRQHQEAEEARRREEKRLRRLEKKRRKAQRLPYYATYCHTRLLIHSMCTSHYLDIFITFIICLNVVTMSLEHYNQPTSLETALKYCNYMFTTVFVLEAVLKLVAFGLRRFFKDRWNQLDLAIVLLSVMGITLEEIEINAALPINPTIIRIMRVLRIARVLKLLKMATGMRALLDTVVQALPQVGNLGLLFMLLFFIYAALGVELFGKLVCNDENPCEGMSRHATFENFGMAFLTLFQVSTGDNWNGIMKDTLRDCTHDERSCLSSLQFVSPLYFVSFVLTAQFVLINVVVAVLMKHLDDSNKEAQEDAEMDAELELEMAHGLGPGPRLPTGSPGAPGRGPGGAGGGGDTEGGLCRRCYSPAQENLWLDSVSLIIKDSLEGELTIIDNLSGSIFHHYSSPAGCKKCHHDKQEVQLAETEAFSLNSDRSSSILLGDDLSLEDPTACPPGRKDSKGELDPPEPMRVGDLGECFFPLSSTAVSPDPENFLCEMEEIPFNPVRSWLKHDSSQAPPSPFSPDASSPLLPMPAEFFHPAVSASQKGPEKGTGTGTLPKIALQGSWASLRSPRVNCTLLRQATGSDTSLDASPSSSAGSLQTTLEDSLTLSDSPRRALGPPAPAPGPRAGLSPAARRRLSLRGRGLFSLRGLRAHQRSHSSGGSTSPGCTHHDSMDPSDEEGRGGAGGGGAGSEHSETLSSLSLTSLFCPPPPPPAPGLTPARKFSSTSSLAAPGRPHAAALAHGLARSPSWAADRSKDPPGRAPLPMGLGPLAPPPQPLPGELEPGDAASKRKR

[5] = molecular target: T1, Cav3.3 (Mus musculus, UniProt E9Q7P2); assay: Western blot of Cav3.3 protein levels in whole trigeminal ganglia lysates after peptide injection; assay type: in vivo; settings: FRICT-ION mice, whole TG lysates, four hours post injection, normalized to actin
T1 construct: Western blot analysis of Cav3.3 protein levels from whole TG lysates was performed; from tissue; host or cells: mouse trigeminal ganglia (FRICT-ION model)
T1 sequence (E9Q7P2 1-2199): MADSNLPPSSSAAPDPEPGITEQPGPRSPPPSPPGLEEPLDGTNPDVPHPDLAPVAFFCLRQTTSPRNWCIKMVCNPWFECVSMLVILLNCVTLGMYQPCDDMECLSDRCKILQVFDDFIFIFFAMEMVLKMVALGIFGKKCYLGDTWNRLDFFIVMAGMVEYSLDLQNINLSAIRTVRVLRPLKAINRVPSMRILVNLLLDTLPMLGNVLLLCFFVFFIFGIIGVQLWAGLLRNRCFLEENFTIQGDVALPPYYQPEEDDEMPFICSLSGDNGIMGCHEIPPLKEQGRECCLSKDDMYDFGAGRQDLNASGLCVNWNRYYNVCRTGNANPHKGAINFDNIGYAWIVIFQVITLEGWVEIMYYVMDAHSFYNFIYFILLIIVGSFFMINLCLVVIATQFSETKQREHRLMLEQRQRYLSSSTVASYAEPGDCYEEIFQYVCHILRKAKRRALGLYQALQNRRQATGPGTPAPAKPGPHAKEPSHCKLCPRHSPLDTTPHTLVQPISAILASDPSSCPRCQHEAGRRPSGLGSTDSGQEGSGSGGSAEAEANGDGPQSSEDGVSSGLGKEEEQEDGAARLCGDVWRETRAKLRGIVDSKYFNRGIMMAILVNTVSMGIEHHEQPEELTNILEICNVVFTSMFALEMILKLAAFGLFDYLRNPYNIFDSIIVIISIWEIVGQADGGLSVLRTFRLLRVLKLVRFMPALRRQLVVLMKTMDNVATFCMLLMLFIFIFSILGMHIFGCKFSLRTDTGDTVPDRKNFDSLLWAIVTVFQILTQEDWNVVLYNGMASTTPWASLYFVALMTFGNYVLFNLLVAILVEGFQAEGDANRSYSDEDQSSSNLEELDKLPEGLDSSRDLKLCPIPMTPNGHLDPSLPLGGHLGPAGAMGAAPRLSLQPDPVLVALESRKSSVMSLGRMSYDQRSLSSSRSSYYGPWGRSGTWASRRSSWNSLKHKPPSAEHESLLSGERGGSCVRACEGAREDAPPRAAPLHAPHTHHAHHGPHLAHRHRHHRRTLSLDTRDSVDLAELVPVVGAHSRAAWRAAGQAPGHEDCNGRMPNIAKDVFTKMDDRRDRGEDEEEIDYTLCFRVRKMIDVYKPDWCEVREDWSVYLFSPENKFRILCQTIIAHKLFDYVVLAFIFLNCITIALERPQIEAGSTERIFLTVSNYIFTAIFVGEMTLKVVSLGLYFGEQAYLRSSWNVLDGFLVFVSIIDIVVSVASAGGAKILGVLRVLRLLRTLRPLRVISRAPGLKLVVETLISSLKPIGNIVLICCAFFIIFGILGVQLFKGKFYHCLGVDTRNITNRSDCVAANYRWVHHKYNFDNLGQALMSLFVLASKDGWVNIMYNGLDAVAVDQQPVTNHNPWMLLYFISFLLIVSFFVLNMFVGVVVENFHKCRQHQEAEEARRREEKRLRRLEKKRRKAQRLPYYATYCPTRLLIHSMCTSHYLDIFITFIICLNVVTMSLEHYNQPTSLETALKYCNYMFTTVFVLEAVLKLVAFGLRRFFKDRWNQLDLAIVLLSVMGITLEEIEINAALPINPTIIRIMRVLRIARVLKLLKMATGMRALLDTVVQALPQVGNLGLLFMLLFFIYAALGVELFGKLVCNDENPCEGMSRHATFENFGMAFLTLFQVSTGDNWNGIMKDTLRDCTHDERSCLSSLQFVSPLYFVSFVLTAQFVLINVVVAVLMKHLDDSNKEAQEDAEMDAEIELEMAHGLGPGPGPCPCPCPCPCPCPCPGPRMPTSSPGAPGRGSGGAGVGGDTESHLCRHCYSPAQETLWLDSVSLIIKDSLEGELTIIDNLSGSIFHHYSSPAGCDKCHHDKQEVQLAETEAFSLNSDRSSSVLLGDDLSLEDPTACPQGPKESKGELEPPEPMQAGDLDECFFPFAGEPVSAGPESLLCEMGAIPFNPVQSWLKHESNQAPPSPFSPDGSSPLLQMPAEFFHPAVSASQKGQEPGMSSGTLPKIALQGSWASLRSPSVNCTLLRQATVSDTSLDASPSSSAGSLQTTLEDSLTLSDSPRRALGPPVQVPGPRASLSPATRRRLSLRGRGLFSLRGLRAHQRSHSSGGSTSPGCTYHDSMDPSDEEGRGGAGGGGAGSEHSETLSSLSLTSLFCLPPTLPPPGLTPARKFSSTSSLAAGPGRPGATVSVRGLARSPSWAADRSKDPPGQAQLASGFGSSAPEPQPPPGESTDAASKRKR
Method: Twelve male and female mice (8-10 weeks old, six mice per sex) were subject to the FRICT-ION model of trigeminal neuropathic pain. Three mice of each sex were administered TAT-C3P peptide (SEQ ID NO:1) and the remaining mice were administered TAT-C3D (SEQ ID NO:2) following the methods described above. Four hours post injection, mice were euthanized with pentobarbital (50 mg/kg) and both ipsilateral and contralateral trigeminal ganglia (TG) were removed. TG were washed immediately in PBS and stored at −80° C.
The TG for each of the four groups were pooled together (n=3) for protein extraction and homogenized using a pestle and 500 μL of 1×RIPA buffer (Thermo Fisher Scientific, Inc., Waltham, Mass.). Samples were put on a rocking shaker for two hours and then centrifuged, and supernatant removed to a new tube. Samples were assayed for total protein. […] Samples were then prepared for electrophoresis by mixing with 2× sample buffer and boiling for five minutes at 100° C. for denaturation.
Proteins were loaded on a 12% Tris-Glycine polyacrylamide gradient gel (Bio-Rad Laboratories, Inc., Hercules, Calif.) and transferred to a PVDF membrane (MilliporeSigma, Burlington, Mass.). […] Signal intensity was analyzed using ImageJ (Schneider et al., Nature Methods 9:671-675 (2012)) for comparisons.
Male and female mice were analyzed separately. […]

## CCC1(C)CC(=O)NC1=O (stereo not drawn) [ethosuximide]
[1]
  outcome of clinical trial for neuropathic pain: halted due to adverse events

## GRKKRRQRRRPQEESNKEAREDAELDAEIELEMAQG [TAT-C3P]
[2]; FRICT-ION mice
  CNS penetration following intraperitoneal injection: penetrates the central nervous system
[3]
  side effects: no major side effects

## GRKKRRQRRRPQEESNKEAREDAELDAEIELEMAQGHHHHHH [His-tagged TAT-C3P]
[2]; male FRICT-ION mice, tissues harvested four hours post-injection
  His-tag bands in TG and medullary tissues: Bands were detected

## TAT-C3D: control peptide that does not block Cav3.3 channels, GRKKRRQRRRPQAVSSPARSGEPLHALSPRGTARSP (GRKKRRQRRRPQAVSSPARSGEPLHALSPRGTARSP; unkown; TAT-C3D (1)..(36))
[4]
  inhibition of Cav3.3: does not inhibit Cav3.3
[5]
  Cav3.3 protein levels in the trigeminal ganglia: strongly present
